# How the values were obtained:
# Format in all cases: functional
# [1] = system: Mycobacterium tuberculosis; experiment: Antimicrobial activity against rifampicin-resistant Mycobacterium tuberculosis
# [2] = system: Mycobacterium tuberculosis; experiment: Antimicrobial activity against multiple drug-resistant Mycobacterium tuberculosis
# [3] = system: Mycobacterium tuberculosis; experiment: Antimicrobial activity against compound-resistant Mycobacterium tuberculosis
Compound,MIC [1] [mg/L],MIC [2] [mg/L],MIC [3] [mg/L]
CO[C@H]1/C=C/O[C@@]2(C)Oc3c(C)c(O)c4c(O)c(c(/C=N/N5CCN(C6CCCC6)CC5)c(O)c4c3C2=O)NC(=O)/C(C)=C\C=C\[C@H](C)[C@H](O)[C@@H](C)[C@@H](O)[C@@H](C)[C@H](OC(C)=O)[C@@H]1C [RIFAPENTINE],0.02,–,–
O=[N+]([O-])c1cn2c(n1)OC[C@@H](OCc1ccc(OC(F)(F)F)cc1)C2 [PRETOMANID],–,0.015,–
COc1c(N2CCNC(C)C2)c(F)cc2c(=O)c(C(=O)O)cn(C3CC3)c12 (stereo unspecified) [GATIFLOXACIN],0.2,–,–
CC(C)=CCC/C(C)=C/CNCCNC1C2CC3CC(C2)CC1C3 (stereo unspecified) [SQ109],–,–,0.16
C[C@]1(COc2ccc(N3CCC(Oc4ccc(OC(F)(F)F)cc4)CC3)cc2)Cn2cc([N+](=O)[O-])nc2O1,–,–,0.006
COc1nc2ccc(Br)cc2cc1[C@@H](c1ccccc1)[C@@](O)(CCN(C)C)c1cccc2ccccc12 [BEDAQUILINE],–,0.03,–
